Experimental data reported in patent US8431597B2, “Benzimidazole derivatives” (Pfizer Inc., priority 2007, dated 2013).
Where a name gives a salt, the structure may show the parent alone.

These molecules were tested against T1, Smoothened (SMO) (Mus musculus, UniProt P56726) (assay: Smoothened (SMO)/Sonic Hedgehog (SHh) Transient Transcriptional Activation Assay (Gli-luciferase reporter in C3H10T1/2 cells)). Conditions: C3H 10T1/2, 2 μM compound; transfected C3H10T1/2 cells, recombinant human SHh 250 ng/mL, 20 hours, luciferase readout; read-out: SMO CELL % INHIBITION @ 2 μM.
T1 construct: C3H10T1/2 cells (ATCC #CCL-226) were split and seeded; endogenous in cells; host or cells: C3H10T1/2 (ATCC #CCL-226)
T1 sequence (P56726 33-793): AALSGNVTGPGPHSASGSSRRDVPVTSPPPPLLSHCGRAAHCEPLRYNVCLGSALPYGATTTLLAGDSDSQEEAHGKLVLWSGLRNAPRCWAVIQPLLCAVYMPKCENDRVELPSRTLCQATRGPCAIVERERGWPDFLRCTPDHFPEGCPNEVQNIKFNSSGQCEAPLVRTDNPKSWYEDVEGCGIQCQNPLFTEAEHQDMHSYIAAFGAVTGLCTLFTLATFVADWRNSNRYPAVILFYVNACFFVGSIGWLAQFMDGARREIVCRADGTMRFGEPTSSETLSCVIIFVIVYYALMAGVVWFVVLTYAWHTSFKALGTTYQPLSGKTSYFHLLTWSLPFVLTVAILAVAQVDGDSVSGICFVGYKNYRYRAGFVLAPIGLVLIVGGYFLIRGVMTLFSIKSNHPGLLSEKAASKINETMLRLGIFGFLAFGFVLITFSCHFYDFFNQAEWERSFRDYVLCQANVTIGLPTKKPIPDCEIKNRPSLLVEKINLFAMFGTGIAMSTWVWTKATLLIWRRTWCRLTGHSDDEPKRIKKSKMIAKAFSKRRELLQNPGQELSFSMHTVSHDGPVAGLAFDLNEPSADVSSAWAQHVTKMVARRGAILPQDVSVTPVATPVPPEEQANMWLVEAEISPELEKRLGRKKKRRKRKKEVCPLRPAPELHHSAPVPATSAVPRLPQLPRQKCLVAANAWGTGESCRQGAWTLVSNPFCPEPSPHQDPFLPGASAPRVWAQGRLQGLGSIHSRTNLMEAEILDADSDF
Type: cell-based, murine
Method in brief: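 C3H10T1/2 cells transiently transfected with a murine Gli-responsive firefly luciferase reporter plus pEGFP were serum-starved 20 h in 0.5% calf serum. Compound (2 μM to 2 nM final) was added with recombinant human SHh at 250 ng/mL final for 20 h at 37 °C. Read-out was Dual-Glo luminescence.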

| SMILES | inhibition at 2 µM [%] |
| --- | --- |
| COc1ccc(NC(=O)N[C@@H]2CCN(C)[C@@H](c3nc4ccccc4[nH]3)C2)cn1 [Example 83, 1-[(2R,4R)-2-(1H-benzimidazol-2-yl)-1-methylpiperidin-4-yl]-3-(6-methoxypyridin-3-yl)urea hydrochloride] | 96.1 |
| CC(C)N1C[C@H](NC(=O)Nc2ccc(Cl)c(C(F)(F)F)c2)C[C@H]1c1nc2ccccc2[nH]1 [Example 84, 1-[(3R,5S)-5-(1H-benzimidazol-2-yl)-1-isopropyl-pyrrolidin-3-yl]-3-[4-chloro-3-(trifluoromethyl)phenyl]urea] | 95.4 |
| CN1CC[C@@H](NC(=O)NC2CCCC2)C[C@@H]1c1nc2ccccc2[nH]1 [Example 85, 1-[(2R,4R)-2-(1H-benzimidazol-2-yl)-1-methylpiperidin-4-yl]-3-cyclopentylurea hydrochloride] | 93.1 |
| CN1CC[C@@H](NC(=O)c2ccc3c(c2)OCCO3)C[C@@H]1c1nc2ccccc2[nH]1 [Example 86, N-[(2R,4R)-2-(1H-benzimidazol-2-yl)-1-methylpiperidin-4-yl]-2,3-dihydro-1,4-benzodioxine-6-carboxamide hydrochloride] | 93.1 |
| CN1CC[C@@H](NC(=O)c2ccc3c(c2)CCC(=O)N3)C[C@@H]1c1nc2ccccc2[nH]1 [Example 87, N-[(2R,4R)-2-(1H-benzimidazol-2-yl)-1-methylpiperidin-4-yl]-2-oxo-1,2,3,4-tetrahydroquinoline-6-carboxamide hydrochloride] | 92.3 |
| CN1CC[C@@H](NC(=O)Nc2cccc(C#N)c2)C[C@@H]1c1nc2ccccc2[nH]1 [Example 88, 1-[(2R,4R)-2-(1H-benzimidazol-2-yl)-1-methylpiperidin-4-yl]-3-(3-cyanophenyl)urea hydrochloride] | 92.1 |
| O=C(N[C@@H]1CCN(CC2CC2)[C@@H](c2nc3ccccc3[nH]2)C1)c1ccc2c(c1)OCCO2 [Example 89, N-[(2R,4R)-2-(1H-benzimidazol-2-yl)-1-(cyclopropyl-methyl)piperidin-4-yl]-2,3-dihydro-1,4-benzodioxine-6-carboxamide hydrochloride] | 88.2 |
| CN1CC[C@@H](NC(=O)Nc2ccc(-c3ccccc3)s2)C[C@@H]1c1nc2ccccc2[nH]1 [Example 90, 1-[(2R,4R)-2-(1H-benzimidazol-2-yl)-1-methylpiperidin-4-yl]-3-(5-phenyl-2-thienyl)urea hydrochloride] | 87.9 |
| Cc1nc(C(F)(F)F)ccc1C(=O)N[C@@H]1CCN(C)[C@@H](c2nc3ccccc3[nH]2)C1 [Example 91, N-[(2R,4R)-2-(1H-benzimidazol-2-yl)-1-methylpiperidin-4-yl]-2-methyl-6-(trifluoromethyl)nicotinamide hydrochloride] | 87.9 |
| CN1CC[C@@H](NC(=O)c2ccc(-c3cnco3)cc2)C[C@@H]1c1nc2ccccc2[nH]1 [Example 92, N-[(2R,4R)-2-(1H-benzimidazol-2-yl)-1-methylpiperidin-4-yl]-4-(1,3-oxazol-5-yl)benzamide hydrochloride] | 86.4 |
| CC(C)N1C[C@@H](NC(=O)Nc2ccc(Cl)c(C(F)(F)F)c2)C[C@H]1c1nc2ccccc2[nH]1 [Example 93, 1-[(3S,5S)-5-(1H-benzimidazol-2-yl)-1-isopropyl-pyrrolidin-3-yl]-3-[4-chloro-3-(trifluoromethyl)phenyl]urea] | 85.2 |
| CN1CC[C@H](NC(=O)c2ccc3c(c2)OCCO3)C[C@@H]1c1nc2ccccc2[nH]1 [Example 94, N-[(2R,4S)-2-(1H-benzimidazol-2-yl)-1-methylpiperidin-4-yl]-2,3-dihydro-1,4-benzodioxine-6-carboxamide hydrochloride] | 79.7 |
| CN1CC[C@@H](NC(=O)N2CCOCC2)C[C@@H]1c1nc2ccccc2[nH]1 [Example 95, N-[(2R,4R)-2-(1H-benzimidazol-2-yl)-1-methylpiperidin-4-yl]morpholine-4-carboxamide hydrochloride] | 78.7 |
| COc1cncc(NC(=O)N[C@@H]2CCN(C)[C@@H](c3nc4ccccc4[nH]3)C2)c1 [Example 96, 1-[(2R,4R)-2-(1H-benzimidazol-2-yl)-1-methylpiperidin-4-yl]-3-(5-methoxypyridin-3-yl)urea hydrochloride] | 76.3 |
| CN1CC[C@@H](NC(=O)c2cnc3c(c2)OCCO3)C[C@@H]1c1nc2ccccc2[nH]1 [Example 97, N-[(2R,4R)-2-(1H-benzimidazol-2-yl)-1-methylpiperidin-4-yl]-2,3-dihydro[1,4]dioxino[2,3-b]pyridine-7-carboxamide hydrochloride] | 75.4 |
| N#Cc1ccc(NC(=O)N[C@@H]2CCN(CCc3ccccc3)[C@@H](c3nc4ccccc4[nH]3)C2)cc1 [Example 98, 1-[(2R,4R)-2-(1H-benzimidazol-2-yl)-1-(2-phenyl-ethyl)piperidin-4-yl)-3-(4-cyanophenyl)urea] | 74.5 |

| SMILES | inhibition at 2 µM [%] |
| --- | --- |
| O=C(N[C@@H]1CCN[C@@H](c2nc3ccccc3[nH]2)C1)c1ccc2c(c1)OCCO2 [Example 99, N-[(2R,4R)-2-(1H-benzimidazol-2-yl)piperidin-4-yl]-2,3-dihydro-1,4-benzodioxine-6-carboxamide trifluoroacetate] | 72 |
| CN1CC[C@@H](NC(=O)c2ccc3c(c2)NC(=O)CO3)C[C@@H]1c1nc2ccccc2[nH]1 [Example 100, N-[(2R,4R)-2-(1H-benzimidazol-2-yl)-1-methylpiperidin-4-yl]-3-oxo-3,4-dihydro-2H-1,4-benzoxazine-6-carboxamide hydrochloride] | 63.7 |
| CN1CC[C@@H](NC(=O)Nc2ccc(C(F)(F)F)cn2)C[C@@H]1c1nc2ccccc2[nH]1 [Example 101, 1-[(2R,4R)-2-(1H-benzimidazol-2-yl)-1-methylpiperidin-4-yl]-3-[5-(trifluoromethyl)pyridin-2-yl]urea hydrochloride] | 62.5 |
| COc1cc(C(=O)N[C@@H]2CCN(C)[C@@H](c3nc4ccccc4[nH]3)C2)ccc1F [Example 102, N-[(2R,4R)-2-(1H-benzimidazol-2-yl)-1-methylpiperidin-4-yl]-4-fluoro-3-methoxybenzamide trifluoroacetate] | 102 |
| Cc1ccc2nccc(C(=O)N[C@@H]3CCN(C)[C@@H](c4nc5ccccc5[nH]4)C3)c2c1 [Example 103, N-[(2R,4R)-2-(1H-benzimidazol-2-yl)-1-methylpiperidin-4-yl]-6-methylquinoline-4-carboxamide trifluoroacetate] | 100 |
| CN1CC[C@@H](NC(=O)Cc2cc3ccccc3o2)C[C@@H]1c1nc2ccccc2[nH]1 [Example 104, N-[(2R,4R)-2-(1H-benzimidazol-2-yl)-1-methylpiperidin-4-yl]-2-(1-benzofuran-2-yl)acetamide trifluoroacetate] | 99.5 |
| CN1CC[C@@H](NC(=O)[C@@H]2COc3ccccc3O2)C[C@@H]1c1nc2ccccc2[nH]1 [Example 105, (2S)-N-[(2R,4R)-2-(1H-benzimidazol-2-yl)-1-methylpiperidin-4-yl]-2,3-dihydro-1,4-benzodioxine-2-carboxamide trifluoroacetate] | 97.8 |
| CN1CC[C@@H](NC(=O)Cn2nc3ccccc3n2)C[C@@H]1c1nc2ccccc2[nH]1 [Example 106, N-[(2R,4R)-2-(1H-benzimidazol-2-yl)-1-methylpiperidin-4-yl]-2-(2H-1,2,3-benzotriazol-2-yl)acetamide trifluoroacetate] | 94.5 |
| CSc1ccccc1C(=O)N[C@@H]1CCN(C)[C@@H](c2nc3ccccc3[nH]2)C1 [Example 107, N-[(2R,4R)-2-(1H-benzimidazol-2-yl)-1-methylpiperidin-4-yl]-2-(methylthio)benzamide trifluoroacetate] | 88.3 |
| CN1CC[C@@H](NC(=O)Cn2cc3ccccc3n2)C[C@@H]1c1nc2ccccc2[nH]1 [Example 108, N-[(2R,4R)-2-(1H-benzimidazol-2-yl)-1-methylpiperidin-4-yl]-2-(2H-indazol-2-yl)acetamide trifluoroacetate] | 86.4 |
| CN1CC[C@@H](NC(=O)Cn2ncc3ccccc32)C[C@@H]1c1nc2ccccc2[nH]1 [Example 109, N-[(2R,4R)-2-(1H-benzimidazol-2-yl)-1-methylpiperidin-4-yl]-2-(1H-indazol-1-yl)acetamide trifluoroacetate] | 85.2 |
| CN1CC[C@@H](NC(=O)Cc2ccccc2)C[C@@H]1c1nc2ccccc2[nH]1 [Example 110, N-[(2R,4R)-2-(1H-benzimidazol-2-yl)-1-methylpiperidin-4-yl]-2-phenylacetamide trifluoroacetate] | 83.2 |
| COc1ccc(C(=O)N[C@@H]2CCN(C)[C@@H](c3nc4ccccc4[nH]3)C2)cc1 [Example 111, N-[(2R,4R)-2-(1H-benzimidazol-2-yl)-1-methylpiperidin-4-yl]-4-methoxybenzamide trifluoroacetate] | 83.2 |
| COc1cccc(C(=O)N[C@@H]2CCN(C)[C@@H](c3nc4ccccc4[nH]3)C2)c1 [Example 112, N-[(2R,4R)-2-(1H-benzimidazol-2-yl)-1-methylpiperidin-4-yl]-3-methoxybenzamide trifluoroacetate] | 81.7 |
| CN1CC[C@@H](NC(=O)c2cc3ccccc3n2C)C[C@@H]1c1nc2ccccc2[nH]1 [Example 113, N-[(2R,4R)-2-(1H-benzimidazol-2-yl)-1-methylpiperidin-4-yl]-1-methyl-1H-indole-2-carboxamide trifluoroacetate] | 76.1 |
| CN1CC[C@@H](NC(=O)Cc2nc3ccccc3o2)C[C@@H]1c1nc2ccccc2[nH]1 [Example 114, N-[(2R,4R)-2-(1H-benzimidazol-2-yl)-1-methylpiperidin-4-yl]-2-(1,3-benzoxazol-2-yl)acetamide trifluoroacetate] | 75.5 |
